Measured values: ChEMBL document CHEMBL4834462, “Naphtho-γ-pyrone Dimers from an Endozoic Aspergillus niger and the Effects of Coisolated Monomers in Combination with Cisplatin on a Cisplatin-Resistant A549 Cell Line” (J Nat Prod, 2021)
Calls of active or inactive are those of the source. No cut-off for these calls is given here.

Tests used:
A549 [1] = experiment: Anticancer activity against cisplatin-resistant human A549 cells assessed as reduction in cell viability measured after 48 hrs in presence of cisplatin by MTT assay; format: functional, cell-based; conditions: A549, 48 h
A549 [2] = experiment: Synergistic antiproliferative activity against cisplatin-resistant human A549 cells assessed as combination index at 10 uM incubated for 48 hrs in presence of 1.5 uM cisplatin by MTT assay; format: functional
A549 [3] = experiment: Synergistic antiproliferative activity against cisplatin-resistant human A549 cells assessed as combination index at 10 uM incubated for 48 hrs in presence of 3 uM cisplatin by MTT assay; format: functional
A549 [4] = experiment: Synergistic antiproliferative activity against cisplatin-resistant human A549 cells assessed as combination index at 10 uM incubated for 48 hrs in presence of 4.5 uM cisplatin by MTT assay; format: functional
A549 [5] = experiment: Synergistic antiproliferative activity against cisplatin-resistant human A549 cells assessed as combination index at 15 uM incubated for 48 hrs in presence of 1.5 uM cisplatin by MTT assay; format: functional
A549 [6] = experiment: Synergistic antiproliferative activity against cisplatin-resistant human A549 cells assessed as combination index at 15 uM incubated for 48 hrs in presence of 3 uM cisplatin by MTT assay; format: functional
A549 [7] = experiment: Synergistic antiproliferative activity against cisplatin-resistant human A549 cells assessed as combination index at 15 uM incubated for 48 hrs in presence of 4.5 uM cisplatin by MTT assay; format: functional
A549 [8] = experiment: Synergistic antiproliferative activity against cisplatin-resistant human A549 cells assessed as combination index at 20 uM incubated for 48 hrs in presence of 1.5 uM cisplatin by MTT assay; format: functional
A549 [9] = experiment: Synergistic antiproliferative activity against cisplatin-resistant human A549 cells assessed as combination index at 20 uM incubated for 48 hrs in presence of 3 uM cisplatin by MTT assay; format: functional
A549 [10] = experiment: Synergistic antiproliferative activity against cisplatin-resistant human A549 cells assessed as combination index at 20 uM incubated for 48 hrs in presence of 4.5 uM cisplatin by MTT assay; format: functional
A549 [11] = experiment: Inhibition of redox balance in cisplatin-resistant human A549 cells assessed as reduction in ratio of GSH/GSSG measured after 24 hrs; format: functional, cell-based; conditions: dose 10-20 µM
A549 [12] = experiment: Induction of intracellular ROS generation in cisplatin-resistant human A549 cells measured after 24 hrs by DCFH-DA staining based laser scanning confocal microscopy; format: functional, cell-based; conditions: dose 10-20 µM
A549 [13] = experiment: Induction of apoptosis in cisplatin-resistant human A549 cells assessed as viable cells at 10 uM incubated for 24 hrs by AnnexinV-FITC/PI staining based flow cytometry (reference value: 86.5%); format: functional; conditions: read-out: Activity
A549 [14] = experiment: Induction of apoptosis in cisplatin-resistant human A549 cells assessed as early apoptotic cells at 10 uM incubated for 24 hrs by AnnexinV-FITC/PI staining based flow cytometry (reference value: 2.17%); format: functional
A549 [15] = experiment: Induction of apoptosis in cisplatin-resistant human A549 cells assessed as late apoptotic cells at 10 uM incubated for 24 hrs by AnnexinV-FITC/PI staining based flow cytometry (reference value: 10.8%); format: functional
A549 [16] = experiment: Induction of apoptosis in cisplatin-resistant human A549 cells assessed as necrotic cells at 10 uM incubated for 24 hrs by AnnexinV-FITC/PI staining based flow cytometry (reference value: 0.53%); format: functional
A549 [17] = experiment: Induction of apoptosis in cisplatin-resistant human A549 cells assessed as viable cells at 20 uM incubated for 24 hrs by AnnexinV-FITC/PI staining based flow cytometry (reference value: 86.5%); format: functional; conditions: read-out: Activity
A549 [18] = experiment: Induction of apoptosis in cisplatin-resistant human A549 cells assessed as early apoptotic cells at 20 uM incubated for 24 hrs by AnnexinV-FITC/PI staining based flow cytometry (reference value: 2.17%); format: functional
A549 [19] = experiment: Induction of apoptosis in cisplatin-resistant human A549 cells assessed as late apoptotic cells at 20 uM incubated for 24 hrs by AnnexinV-FITC/PI staining based flow cytometry (reference value: 10.8%); format: functional
A549 [20] = experiment: Induction of apoptosis in cisplatin-resistant human A549 cells assessed as necrotic cells at 20 uM incubated for 24 hrs by AnnexinV-FITC/PI staining based flow cytometry (reference value: 0.53%); format: functional
A549 [21] = experiment: Downregulation of HO-1 protein expression in cisplatin-resistant human A549 cells at 15 uM incubated for 48 hrs in presence of cisplatin by western blot analysis; format: functional, cell-based
A549 [22] = experiment: Downregulation of NQO-1 protein expression in cisplatin-resistant human A549 cells at 15 uM incubated for 48 hrs in presence of cisplatin by western blot analysis; format: functional, cell-based
A549 [23] = experiment: Downregulation of AKT protein expression in cisplatin-resistant human A549 cells at 15 uM incubated for 48 hrs in presence of cisplatin by western blot analysis; format: functional, cell-based
A549 [24] = experiment: Downregulation of Nrf2 protein expression in cisplatin-resistant human A549 cells at 15 uM incubated for 48 hrs in presence of cisplatin by western blot analysis; format: functional, cell-based
A549 [25] = experiment: Downregulation of HO-1 protein expression in cisplatin-resistant human A549 cells at 15 uM incubated for 48 hrs by western blot analysis; format: functional, cell-based

Compound: COc1cc(OC)c2c(O)c3c(=O)cc(C)oc3c(-c3c(O)cc4cc5oc(C)cc(=O)c5c(O)c4c3OC)c2c1
- IC50 (A549 [1]): > 20 µM

Compound: COc1cc(OC)c2c(c1)c(-c1c(O)cc3cc4oc(C)cc(=O)c4c(O)c3c1OC)c(O)c1c(=O)cc(C)oc12
- IC50 (A549 [1]): > 20 µM

Compound: COc1cc(O)cc2cc3oc(C)cc(=O)c3c(O)c12
- IC50 (A549 [1]): > 20 µM

Compound: COc1cc(OC)c2c(O)c3c(=O)cc(C)oc3c(-c3c(O)cc4cc(O)c5c(=O)cc(C)oc5c4c3OC)c2c1 [ASPERPYRONE A]
- IC50 (A549 [1]): > 20 µM

Compound: COc1cc(OC)c2c(c1)c(-c1c(OC)cc3cc(O)c4c(=O)cc(C)oc4c3c1OC)c(O)c1c(=O)cc(C)oc12
- IC50 (A549 [1]): > 20 µM

Compound: COc1cc(O)cc2cc(O)c3c(=O)cc(C)oc3c12
- IC50 (A549 [1]): > 20 µM
- CI (A549 [2]): 1.95
- CI (A549 [3]): 0.95
- CI (A549 [4]): 0.83
- CI (A549 [5]): 0.75
- CI (A549 [6]): 0.72
- CI (A549 [7]): 0.79
- CI (A549 [8]): 0.76
- CI (A549 [9]): 0.76
- CI (A549 [10]): 0.81
- inhibition (A549 [11]): Dose-Dependent Effect
- Activity (A549 [12]): Dose-Dependent Effect
- viability at 10 µM (A549 [13]): 72.6%
- Activity (A549 [14]): 2.87%
- Activity (A549 [15]): 23.6%
- Activity (A549 [16]): 0.9%
- viability at 20 µM (A549 [17]): 53.3%
- Activity (A549 [18]): 4.05%
- Activity (A549 [19]): 41.3%
- Activity (A549 [20]): 1.34%
- inhibition (A549 [21]): Active
- inhibition (A549 [22]): Active
- inhibition (A549 [23]): Active
- inhibition (A549 [24]): Active
- inhibition (A549 [25]): Active

Compound: COc1cc(OC)c2c(O)c3c(=O)cc(C)oc3c(-c3c(OC)cc4cc5oc(C)cc(=O)c5c(O)c4c3OC)c2c1 [AURASPERONE A]
- IC50 (A549 [1]): > 20 µM

Compound: COc1cc(OC)c2c(O)c3c(=O)cc(C)oc3c(-c3c(OC)cc4cc(O)c5c(=O)cc(C)oc5c4c3OC)c2c1 [FONSECINONE A]
- IC50 (A549 [1]): > 20 µM

Compound: COc1cc(OC)c2c(O)c3c(=O)cc(C)oc3cc2c1 [RUBROFUSARIN B]
- IC50 (A549 [1]): > 20 µM

Compound: O=C1C=C2O[C@H]3CC(=O)c4c(O)cc(O)cc4C3=C2c2cc(O)cc(O)c21
- IC50 (A549 [1]): > 20 µM

Compound: COc1cc(OC)c2c(O)c3c(c(-c4c(OC)cc5cc(O)c6c(=O)cc(C)oc6c5c4OC)c2c1)O[C@](C)(O)CC3=O
- IC50 (A549 [1]): > 20 µM

Compound: COc1cc(OC)c2c(c1)c(-c1c(OC)cc3cc4oc(C)cc(=O)c4c(O)c3c1OC)c(O)c1c(=O)cc(C)oc12 [ASPERPYRONE C]
- IC50 (A549 [1]): > 20 µM
